According to US8206955B2, “Production of monatin and monatin precursors” (Cargill, Incorporated, priority 2003, dated 2012):

What was measured:
S. meliloti = experiment: plate assay using monatin as the main carbon and energy source; type: cell-based; conditions: M9 medium + monatin (0.1-0.2%), 26° C.
Method: (§1) Organisms that can synthesize monatin can be detected by screening for growth on plates in which monatin (or the monatin precursor (MP)) is the main carbon and energy source. Screening by this method requires (1) that the synthetic pathway be reversible, allowing the product, monatin, to be metabolized by this route and (2) that the organism has a transport system that is able to import monatin or MP. S. meliloti, P. straminea, and C. testosteroni were tested for their ability to grow on minimal medium plates which contained monatin as the primary carbon and energy source.
(§2) Plates containing M9 minimal medium or Rhizobium minimal medium were prepared with 0.01% casamino acids and 0.1-0.2% carbon source (glucose or purified monatin). Negative control plates contained casamino acids but no additional carbon source. S. meliloti, P. straminea, and C. testosteroni were grown in rich media to OD 2.1-2.7 and diluted 1000-fold with sterile 1× phosphate-buffered saline (PBS). A volume of 1-10 μL was used for plating. The plates were incubated at 26° C. for several days. […] The experiments were repeated and C. testosteroni was grown in both NB as well as PHB media prior to induction. Again using M9 media for plating, the S. meliloti appeared to grow better with monatin as the carbon source than the other organisms. […] In addition, at the higher dilution (10^−6), the use of PHB-grown inoculum increased the number and size of colonies obtained compared to the NB-grown inoculum.

C. testosteroni = experiment: as above; type: cell-based
Method: as §1, §2

E. coli BL21(DE3) = experiment: effect of Tweens on growth of E. coli in shake flasks; conditions: for effect on growth rate: 0.2% Tween in the presence of 10 μg/mL ampicillin, followed over 48 h
Method: The affect of several detergent Tweens on the growth rate of E. coli BL21(DE3) was studied in shake flask experiments. Either Tween-20, -40, 60, or -80 was added at 0.2% in the presence of 10 μg/mL ampicillin and the growth was followed over 48 h.

[1] = system: C. testosteroni ProA aldolase and L-aspartate aminotransferase (AspC); experiment: production of monatin utilizing alternative C3-carbon sources; type: biochemical
Method: The reaction mixture consisted of 50 mM Tris-Cl pH 8.3, 2 mM MgCl2, 200 mM C3 carbon source, 5 mM alpha-ketoglutarate, sodium salt, 0.05 mM pyridoxal phosphate, deaerated water to achieve a final volume of 0.5 mL after the addition of the enzymes, 3 mM potassium phosphate pH 7.5, 25 μg of crude recombinant C. testosteroni ProA aldolase as prepared in Example 2, 500 μg of crude L-aspartate aminotransferase (AspC) as prepared in Example 1, and solid tryptophan to afford a concentration of >60 mM (saturated; some undissolved throughout the reaction). The reaction mix was incubated at 30° C. for 30 minutes with mixing. Serine, alanine, and aspartate were supplied as 3-carbon sources. Assays were performed with and without secondary PLP enzymes (purified) capable of performing beta-elimination and beta-lyase reactions (tryptophanase (TNA), double mutant tryptophanase, β-tyrosinase (TPL)).

[2] = aldolase activity assay, indole-3-pyruvate and pyruvate to MP; type: biochemical
Method: The proteins were assayed for activity using indole-3-pyruvate and sodium pyruvate as substrates. The assay mixture contained 100 mM Tris-HCl (pH 7-pH 8.9), 0-8 mM MgCl2, 3 mM potassium phosphate (pH 8), and 6 mM of each substrate in 1 mL. The reaction was started by adding varying amounts of polypeptide (for example from 10 to 100 μg), and was incubated at 25° C.-37° C. for 30 minutes, filtered, and then frozen at −80° C.
There is no evidence that magnesium and phosphate are required for activity for this enzyme. However, the literature reports performing the assays in sodium phosphate buffer, and the enzyme reportedly is bifunctional and has activity on phosphorylated substrates such as 2-keto-3-deoxy-6-phosphogluconate (KDPG). The enzymatic assays were performed as described above, and in some instances the phosphate was omitted. […] In some cases the level of MP produced by KHG was almost identical to the amount produced by magnesium and phosphate alone. […] The Bacillus enzyme had the highest activity, approximately 20-25% higher activity than the magnesium and phosphate alone, as determined by LC/MS/MS (see Example 6). […] All three enzymes have the active site glutamate (position 43 in B. subtilis numbering system) as well as the lysine required for Shiff base formation with pyruvate (position 130); however, the B. subtilis enzyme contains a threonine in position 47, an active site residue, rather than arginine. The B. subtilis KHG is smaller and appears to be in a cluster distinct from the S. meliloti and E. coli enzymes, with other enzymes having the active site threonine. The differences in the active site may be the reason for the increased activity of the B. subtilis enzyme.

stability of MP = type: physicochemical
Text: Any effect of additional tryptophan and pyruvate was not detectable, except in the case of Comamonas, where a benefit was noted. […] It is not known whether tryptophan and pyruvate are efficiently taken up in these wildtype organisms, or what changes in gene expression occur as a result of adding large concentrations of these substrates to the medium. While the parahydroxybenzoate substrate is only known to induce the aldolase in Comamonas, it appears to have improved the level of monatin produced in S. meliloti as well.

[3] = 200 mM C3 carbon source, additional PLP enzyme: None
[4] = additional PLP enzyme: 11 μg wildtype TNA (1 U)
[5] = additional PLP enzyme: 80 μg double mutant TNA

NC(CC(O)(Cc1c[nH]c2ccccc12)C(=O)O)C(=O)O (racemic) [monatin, 2-hydroxy-2-(indol-3-ylmethyl)-4-aminoglutaric acid]
growth with monatin as carbon source (S. meliloti): exhibited better growth than the other strains tested
growth with monatin as carbon source (C. testosteroni; M9 media + monatin): exhibited some growth
growth with monatin as carbon source (C. testosteroni; Rhizobium minimal medium): grew better with monatin as the carbon and energy source than it did with glucose

Tween 40
inhibition to growth (E. coli BL21(DE3); 0.2% Tween): least inhibition to growth
effect on growth rate (E. coli BL21(DE3)): affected the growth rate the least

Tween-80
effect on growth rate (E. coli BL21(DE3)): intermediate in affect

N[C@@H](CO)C(=O)O [serine]
Relative Activity [1, 3]: 3%
Relative Activity [1, 4]: 5.1%
Relative Activity [1, 5]: 4.6%

C. testosteroni aldolase: 4-hydroxy-4-methyl-2-oxoglutarate pyruvate lyase (ProA aldolase) from Comamonas testosteroni (SEQ ID NO: 66)
amount of MP produced ([2]; standard assay using 20 μg of purified protein, based on tryptophan standards): 10-40 μg per one mL reaction

O=C(O)C(=O)CC(O)(Cc1c[nH]c2ccccc12)C(=O)O (centres unmarked) [MP, 2-hydroxy 2-(indole-3-ylmethyl)-4-keto glutaric acid]
stability (stability of MP; aqueous solution): unstable in an aqueous solution
stability (stability of MP; fermentation broth and cell extracts): not stable in this particular matrix

Tween-60
effect on growth rate (E. coli BL21(DE3)): intermediate in affect

tryptophanase
formation of MP from indole-3-pyruvate and pyruvate (in words) [2]: did not appear to detectably convert indole-3-pyruvate to MP

polyoxyethylene 20-Sorbitan monolaurate [Tween 20]
final OD600 relative to cultures grown in the presence of Tween 40 (E. coli BL21(DE3); 0.2% Tween): slightly over half
effect on growth rate (E. coli BL21(DE3)): about half

Cc1ncc(COP(=O)(O)O)c(C=O)c1O [PLP, pyridoxal 5′-phosphate, reference compound]
formation of MP from indole-3-pyruvate and pyruvate (in words) [2]: did not appear to detectably convert indole-3-pyruvate to MP

C[C@H](N)C(=O)O [alanine]
Relative Activity [1, 3]: 32%
Relative Activity [1, 4]: 41.7%
Relative Activity [1, 5]: 43.9%
